Results published in the supplement of paper PMC11061612.

How the values were obtained:
Assay in all cases: combination Emax (second highest fraction inhibited in the dose matrix, 72 h); higher = more inhibition; extreme values may be limits of the assay
[1] = system: HTC-C3 (Thyroid Gland Carcinoma)
How it was run: (§1)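 After 24 hours at 37°C and 5% CO2 in 1536-well plates, cells in DMEM/F12 or RPMI plus 10% FBS received two-drug dose matrices for 72 hours. Viability came from CellTiter-Glo 2.0 luminescence and was scaled as inhibition, anchored at 0 by vehicle wells and at 1 by blank wells. Combination Emax is taken as the second-highest inhibition in the matrix, and Bliss excess as the observed combination effect less EA + EB − EA·EB, with EA and EB the single-agent effects.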

[2] = system: KYM-1 (Rhabdomyosarcoma)
How it was run: as §1

[3] = system: NKM-1 (Acute Myeloid Leukemia)
How it was run: as §1

[4] = system: 786-0 (Kidney Carcinoma)
How it was run: as §1

[5] = system: NCI-H1755 (Lung Adenocarcinoma)
How it was run: as §1

[6] = system: BALL-1 (B-Lymphoblastic Leukemia)
How it was run: as §1

[7] = system: LOUCY (T-Lymphoblastic Leukemia)
How it was run: as §1

[8] = system: NCI-H1563 (Lung Adenocarcinoma)
How it was run: as §1

[9] = system: SNU-175 (Colorectal Carcinoma)
How it was run: as §1

[10] = system: FLO-1 (Esophageal Adenocarcinoma)
How it was run: as §1

[11] = system: SK-MM-2 (Plasma Cell Myeloma)
How it was run: as §1

[12] = system: CHL-1 (Melanoma)
How it was run: as §1

[13] = system: COLO-684 (Endometrial Carcinoma)
How it was run: as §1

[14] = system: NCI-H196 (Small Cell Lung Carcinoma)
How it was run: as §1

[15] = system: ES-2 (Ovarian Carcinoma)
How it was run: as §1

[16] = system: EB-3 (Burkitt's Lymphoma)
How it was run: as §1

[17] = system: OCI-AML5 (Acute Myeloid Leukemia)
How it was run: as §1

[18] = system: Calu-6 (Non-Small Cell Lung Carcinoma)
How it was run: as §1

[19] = system: AN3-CA (Endometrial Carcinoma)
How it was run: as §1

[20] = system: NCI-H810 (Non-Small Cell Lung Carcinoma)
How it was run: as §1

SMILES | combination Emax [1] | combination Emax [2] | combination Emax [3] | combination Emax [4] | combination Emax [5] | combination Emax [6] | combination Emax [7] | combination Emax [8] | combination Emax [9] | combination Emax [10] | combination Emax [11] | combination Emax [12] | combination Emax [13] | combination Emax [14] | combination Emax [15] | combination Emax [16] | combination Emax [17] | combination Emax [18] | combination Emax [19] | combination Emax [20]
NC1(C(=O)N[C@@H](CCO)c2ccc(Cl)cc2)CCN(c2ncnc3[nH]ccc23)CC1 [Capivasertib] + C[C@@H]1COCCN1C2=NC(=NC(=C2)C3(CC3)[S@](=N)(=O)C)C4=C5C=CNC5=NC=C4 [AZD6738] (first compound max 10 µM, 7x7, partner max 10 µM) | 0.823 | 0.969 | 0.933 | 0.809 | 0.83 | 1 | 0.979 | 0.501 | 0.709 | 0.652 | 0.302 | 0.732 | 0.798 | 0.408 | 0.86 | 0.651 | 0.917 | 0.792 | 0.849 | 0.648
COc1cccc(OCCCN)c1-c1cc(Nc2cnc(C#N)cn2)n[nH]1 [Prexasertib] + Cc1cc2ncnn2cc1Nc1ncc2c(n1)n(C1CCOCC1)c(=O)n2C [AZD7648] (first compound max 1 µM, 7x7, partner max 10 µM) | 0.843 | 0.942 | 0.965 | 0.896 | 0.918 | 0.999 | 1 | 0.466 | 0.586 | 0.703 | 0.67 | 0.838 | 0.844 | 0.551 | 0.848 | 0.791 | 0.988 | 0.796 | 0.843 | 0.896
CCc1c2c(nc3ccc(O)cc13)-c1cc3c(c(=O)n1C2)COC(=O)[C@]3(O)CC [SN-38] + O=C(c1cc(Cc2n[nH]c(=O)c3ccccc23)ccc1F)N1CCN(C(=O)C2CC2)CC1 [Olaparib] (first compound max 0.3 µM, 7x7, partner max 10 µM) | 0.686 | 0.875 | 0.987 | 0.931 | 0.616 | 1 | 0.764 |  | 0.471 | 0.479 | 0.89 | 0.508 | 0.514 |  |  | 0.682 |  | 0.776 |  | 0.557
CC1(C)CCC(CN2CCN(c3ccc(C(=O)NS(=O)(=O)c4ccc(NCC5CCOCC5)c([N+](=O)[O-])c4)c(Oc4cnc5[nH]ccc5c4)c3)CC2)=C(c2ccc(Cl)cc2)C1 [Venetoclax] + COc1cc(Nc2ncc3c(n2)-c2ccc(Cl)cc2C(c2c(F)cccc2OC)=NC3)ccc1C(=O)O [Alisertib] (first compound max 1 µM, 7x7, partner max 10 µM) | 0.365 | 0.21 | 0.98 | 0.37 | 0.66 | 1 | 1 | 0.466 | 0.818 | 0.514 | 1 | 0.778 | 0.264 | 0.113 | 0.983 | 0.418 | 1 | 0.584 | 0.9 | 0.53
COc1nnc2ccc(N3CCC(c4ccc(OCCN5CCN(C)C(=O)[C@H]5C)cc4)CC3)nn12 [AZD5153] + C=CCn1c(=O)c2cnc(Nc3ccc(N4CCN(C)CC4)cc3)nc2n1-c1cccc(C(C)(C)O)n1 [AZD1775] (first compound max 1 µM, partner max 1 µM) | 0.772 | 0.901 | 0.904 | 0.641 | 0.8 | 1 | 1 | 0.564 | 0.813 | 0.888 | 0.878 | 0.624 | 0.744 | 0.473 | 0.747 | 0.814 | 0.905 | 0.854 | 0.435 | 0.8
Cc1cc2ncnn2cc1Nc1ncc2c(n1)n(C1CCOCC1)c(=O)n2C [AZD7648] + C[C@@H]1COCCN1C2=NC(=NC(=C2)C3(CC3)[S@](=N)(=O)C)C4=C5C=CNC5=NC=C4 [AZD6738] (first compound max 10 µM, 7x7, partner max 10 µM) | 0.802 | 0.697 | 0.839 | 0.694 | 0.883 | 0.986 | 1 | 0.498 | 0.537 | 0.668 | 0.475 | 0.798 | 0.764 | 0.365 | 0.743 | 0.663 | 0.882 | 0.741 | 0.435 | 0.697
COc1nnc2ccc(N3CCC(c4ccc(OCCN5CCN(C)C(=O)[C@H]5C)cc4)CC3)nn12 [AZD5153] + Cn1cnc2c(F)c(Nc3ccc(Br)cc3Cl)c(C(=O)NOCCO)cc21 [Selumetinib] (first compound max 1 µM, 7x7, partner max 10 µM) | 0.804 | 0.972 | 0.995 | 0.577 | 0.564 | 0.859 | 0.729 | 0.465 | 0.742 | 0.635 | 0.963 | 0.666 | 0.549 | 0.276 | 0.705 | 0.706 | 1 | 0.854 | 0.268 | 0.587
CC(=O)c1c(C)c2cnc(Nc3ccc(N4CCNCC4)cn3)nc2n(C2CCCC2)c1=O [Palbociclib] + CC1(C)CCC(CN2CCN(c3ccc(C(=O)NS(=O)(=O)c4ccc(NCC5CCOCC5)c([N+](=O)[O-])c4)c(Oc4cnc5[nH]ccc5c4)c3)CC2)=C(c2ccc(Cl)cc2)C1 [Venetoclax] (first compound max 10 µM, 7x7, partner max 1 µM) | 0.189 | 0.863 | 0.946 | 0.411 | 0.477 | 1 | 1 | 0.313 | 0.562 | 0.495 | 1 | 0.0898 | 0.193 | 0.0487 | 0.501 | 0.329 | 0.837 | 0.353 | 0.255 | 0.0599
COc1nnc2ccc(N3CCC(c4ccc(OCCN5CCN(C)C(=O)[C@H]5C)cc4)CC3)nn12 [AZD5153] + CCN(CCO)CCCOc1ccc2c(Nc3cc(CC(=O)Nc4cccc(F)c4)[nH]n3)ncnc2c1 [AZD2811] (first compound max 1 µM, 7x7, partner max 1 µM) | 0.818 | 0.85 | 0.922 | 0.552 | 0.654 | 0.948 | 0.97 | 0.488 | 0.83 | 0.565 | 0.908 | 0.58 | 0.553 | 0.314 | 0.618 | 0.757 | 0.985 | 0.301 | 0.297 | 0.694
Cc1cc2ncnn2cc1Nc1ncc2c(n1)n(C1CCOCC1)c(=O)n2C [AZD7648] + CN(C)CCCOc1ccc(-c2ccc3ncc4c(c3c2)n(C2CCOCC2)c(=O)n4C)cn1 [AZD0156] (first compound max 10 µM, 7x7, partner max 1 µM) | 0.161 | 0.165 | 0.384 | 0.18 | 0.362 | 0.295 | 0.604 | 0.49 | 0.173 | 0.358 | 0.205 | 0.253 | 0.28 | 0.203 | 0.295 | 0.585 | 0.297 | 0.381 | 0.321 | 0.287
Cc1c2c(nn1C)CSCc1cc(n(C)n1)CSc1cc(c3ccccc3c1)OCCCc1c(C(=O)O)n(C)c3c-2c(Cl)ccc13 [AZD5991] + CC1(C)CCC(CN2CCN(c3ccc(C(=O)NS(=O)(=O)c4ccc(NCC5CCOCC5)c([N+](=O)[O-])c4)c(Oc4cnc5[nH]ccc5c4)c3)CC2)=C(c2ccc(Cl)cc2)C1 [Venetoclax] (first compound max 1 µM, 7x7, partner max 1 µM) | 0.147 | 0.592 | 0.999 | 0.199 | 0.212 | 1 | 1 | 0.768 | 0.926 | 0.382 | 1 | 0.968 | 0.244 | 0.23 | 0.241 | 0.145 | 1 | 0.215 | 0.835 | 0.533
Cc1c2c(nn1C)CSCc1cc(n(C)n1)CSc1cc(c3ccccc3c1)OCCCc1c(C(=O)O)n(C)c3c-2c(Cl)ccc13 [AZD5991] + CN(C)CCCOc1ccc(-c2ccc3ncc4c(c3c2)n(C2CCOCC2)c(=O)n4C)cn1 [AZD0156] (first compound max 1 µM, 7x7, partner max 1 µM) | 0.179 | 0.268 | 0.967 | 0.251 | 0.361 | 0.606 | 0.638 | 0.668 | 0.458 | 0.36 | 0.355 |  | 0.332 | 0.205 | 0.313 | 0.371 | 1 | 0.282 | 0.404 | 0.474
CC(=O)c1c(C)c2cnc(Nc3ccc(N4CCNCC4)cn3)nc2n(C2CCCC2)c1=O [Palbociclib] + CN(CC[C@H](CSC1=CC=CC=C1)NC2=C(C=C(C=C2)S(=O)(=O)NC(=O)C3=CC=C(C=C3)N4CCC(CC4)[C@H](C5=CC=CC=C5C6=CC=C(C=C6)Cl)O)S(=O)(=O)C(F)(F)F)CCO [AZD4320] (first compound max 10 µM, 7x7, partner max 1 µM) | 0.515 |  |  | 0.534 |  | 1 |  | 0.348 | 0.877 |  |  |  |  | 0.276 | 0.621 |  | 1 | 0.623 | 0.709 | 
